Measured values taken from paper PMC5969508, “Stapled peptides as a new technology to investigate protein–protein interactions in human platelets” (Chemical Science, 2018).
Entries after “also recorded” stand apart in the source; their conditions may differ.

Columns and labels:
human platelets [1] = assay: Confocal microscopy of platelets incubated with fluorescently labelled peptides; format: cell-based; conditions: live washed platelets, 10 µM FITC-labelled peptide, 15 minutes incubation, confocal imaging (Fig. SI_5)
Description: Fig. 3 A functionalised staple is required to induce peptide uptake into platelets. (A) Platelets were incubated with TAMRA labelled model peptides (10 μM final concentration) for 1 h (white), 2 h (grey) and 3 h incubation (black) and the percentage positive for TAMRA fluorescence was quantified using flow cytometry. (B) Peptides showing high uptake within the first hour were analysed during first 5 min following treatment. Changes in platelet-associated fluorescence were recorded in real time using flow cytometry. Unlabelled platelets were recorded for 30 s prior to addition of the given peptide. (C) Platelets were incubated with 10 μM of TAMRA-model peptides for 1 h prior to imaging by confocal microscopy. ^‡ […]
Peptide uptake experiments of the most permeable model peptides 5, 13–16 were repeated in the presence of platelet-rich plasma (PRP) to ensure realistic conditions (ESI, Fig. SI_2a ^†).
Figure SI_3. […]
Peptides were used to a final concentration of 10 µM. […] Images of TAMRA-labelled model peptide stained platelets were acquired after 1 h incubation1 using with excitation at 565 nm and emission was detected with a 560 -615 nm BP filter. […]
were acquired after 15 minutes incubation1 using excitation at 488 nm and emission was detected with […]

human platelets [2] = assay: PS exposure (annexin-V binding) by flow cytometry; format: cell-based; conditions: washed human platelets, 10 μM, 37 °C, time course up to 3 h, flow cytometry (Fig. 5A)
Description: Platelet activation markers (% positive platelets) were investigated following 1 h of peptide treatment. […] CD63 binding.
1.1 Preparation of washed platelet suspension
Human blood was collected from healthy volunteers, who had not taken medication for two weeks,
following informed consent in accordance with the Declaration of Helsinki. Blood was collected into 11 mM sodium citrate and washed platelets were prepared as follows: Platelet-rich plasma (PRP) was obtained by centrifugation (240 g, 15 min). Prostaglandin E1 (PGE1, 2 µM) was added to prevent premature platelet activation, and the plasma was centrifuged at 640 g for 15 min. […]
Treated washed platelet suspensions (1x10^7/mL) were analysed by flow cytometry using a C6 Accuri Flow Cytometer (Beckton Dickinson, UK), in the presence or absence of Annexin-V-PE (BD Biosciences, UK), anti-PAC-1 (BD Biosciences), anti-CD62 (BD Pharmingen, UK), or anti-CD-63P (BD Pharmingen). […]
PS exposure was assessed after incubation of 50 µL of washed platelet suspensions at 37 °C in 445 µL of […]
under the protection from direct light and analysed by flow cytometry.
Platelet activation markers (PAC -1, CD62P and CD63 binding) were assessed after incubation of 3 µL of […]
antibody and the peptide (1.1 μL of 1 mM stock solution in DMSO) . The suspensions were analysed by […]

human platelets [3] = conditions: PRP, 10 μM FITC-labelled peptide, 15, 30, 60 minutes, flow cytometry, average of two independent repeats (Fig. SI_2b)
Description: (1 picture or pasted object on this page, not shown here)

For CC[C@H](C)[C@H](NC(C)=O)C(=O)N[C@@H](Cc1c[nH]c2ccccc12)C(=O)N[C@H](C(=O)N[C@@H](C)C(=O)N[C@@H](CCC(N)=O)C(=O)N[C@@H](CCC(=O)O)C(=O)N[C@@H](CC(C)C)C(=O)N[C@@H](CCCNC(=N)N)C(=O)N[C@H]1CCCn2cc(nn2)CCCc2cn(nn2)CCC[C@@H](C(=O)N[C@@H](Cc2ccccc2)C(=O)N[C@@H](CC(N)=O)C(=O)N[C@@H](C)C(=O)N[C@@H](Cc2ccc(O)cc2)C(=O)N[C@@H](Cc2ccc(O)cc2)C(=O)N[C@@H](C)C(=O)N[C@@H](CCCNC(=N)N)C(=O)N[C@@H](CCCNC(=N)N)C(N)=O)NC(=O)[C@H](CC(=O)O)NC(=O)CNC(=O)[C@H]([C@@H](C)CC)NC1=O)[C@@H](C)CC [peptide 18], the “localisation / platelet permeability of FITC-labelled Bim BH3 peptide” value (human platelets [1]) was “poor membrane permeability; also recorded: forming aggregates outside the platelet cytosol; also recorded: form fluorescent aggregates outside the platelets”, the “PS exposure / annexin-V binding (in words)” value (human platelets [2]) was “No annexin-V binding was observed” and the “platelet fluorescence of FITC-labelled Bim BH3 peptide in plasma” value (human platelets [3]) was “high platelet fluorescence in plasma”.
